# Key:
# [1] = target: Beta-lactamase (Enterobacter cloacae) (UniProt P05364); experiment: Minimum inhibitory concentration of 10 ug/ml compound in combination with amoxycillin against Enterobacter cloacae N-1 organism,; assay type: functional
# [2] = tested on: Staphylococcus aureus; experiment: Minimum inhibitory concentration of 10 ug/ml compound in combination with amoxycillin against Staphylococcus aureus MB9 organism; assay type: functional
# [3] = target: Beta-lactamase (Enterobacter cloacae) (UniProt P05364); experiment: Compound was tested for the inhibitory activity against Enterobacter cloacae P99 serine beta-lactamase
# [4] = target: Beta-lactamase OXA-1 (Escherichia coli) (UniProt P13661); experiment: Compound was tested for the inhibitory activity against Escherichia coli OXA-1 serine beta-lactamase
# [5] = target: T1, SHV-5 extended spectrum beta-lactamase (Escherichia coli) (UniProt Q6REX6); experiment: Compound was tested for the inhibitory activity against Escherichia coli SHV-5 serine beta-lactamase
# T1 sequence (whole entry): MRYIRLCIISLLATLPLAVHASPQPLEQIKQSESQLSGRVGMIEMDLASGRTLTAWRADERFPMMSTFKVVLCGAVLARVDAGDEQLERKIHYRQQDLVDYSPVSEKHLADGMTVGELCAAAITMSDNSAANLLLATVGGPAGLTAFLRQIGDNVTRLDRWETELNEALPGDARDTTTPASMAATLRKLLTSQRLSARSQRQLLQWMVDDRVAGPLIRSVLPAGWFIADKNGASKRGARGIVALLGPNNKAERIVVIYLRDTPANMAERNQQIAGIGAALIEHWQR
# [6] = target: Beta-lactamase TEM (Escherichia coli) (UniProt P62593); experiment: Inhibitory activity against Escherichia coli TEM-1 serine beta-lactamase
# [7] = tested on: Proteus mirabilis; experiment: Compound was tested for the inhibitory activity against Proteus mirabilis carbenicillinase
# [8] = target: T2, Beta-lactamase PSE-4 (Pseudomonas aeruginosa) (UniProt P16897); experiment: Compound was tested for the inhibitory activity against Pseudomonas aeruginosa PSE-4 serine beta-lactamase
# T2 sequence (whole entry): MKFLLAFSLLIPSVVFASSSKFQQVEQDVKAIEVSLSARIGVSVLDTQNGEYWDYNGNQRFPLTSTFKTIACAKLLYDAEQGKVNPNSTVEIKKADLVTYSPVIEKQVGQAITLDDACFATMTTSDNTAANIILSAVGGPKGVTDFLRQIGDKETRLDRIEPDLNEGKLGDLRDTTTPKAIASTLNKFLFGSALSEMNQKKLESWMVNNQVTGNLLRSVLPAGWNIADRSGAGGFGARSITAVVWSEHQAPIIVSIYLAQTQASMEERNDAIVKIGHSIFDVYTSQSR
# [9] = target: Beta-lactamase (Staphylococcus aureus) (UniProt P00807); experiment: Inhibitory activity against Staphylococcus aureus penicillinase
# [10] = target: Beta-lactamase (Enterobacter cloacae) (UniProt P05364); experiment: Minimum inhibitory concentration of 10 ug/ml compound in combination with amoxycillin against Enterobacter cloacae N-1 organism; assay type: functional
# [11] = tested on: Staphylococcus aureus; experiment: Minimum inhibitory concentration against Staphylococcus aureus MB9 organism; assay type: functional
# [12] = tested on: Staphylococcus aureus; experiment: Minimum inhibitory concentration of 4 ug/ml compound in combination with amoxycillin against Staphylococcus aureus MB9 organism; assay type: functional
# [13] = target: Beta-lactamase (Enterobacter cloacae) (UniProt P05364)
# Description: Minimum inhibitory concentration against Enterobacter cloacae N-1 organism
# [14] = tested on: Staphylococcus aureus; experiment: Antibacterial activity against Staphylococcus aureus MB9 organism, activity expressed as MIC(minimum inhibitory concentration); assay type: functional
# [15] = target: Beta-lactamase (Enterobacter cloacae) (UniProt P05364); remark: listed apart in the source
# Description: Antibacterial activity against Enterobacter cloacae N-1 organism, activity expressed as MIC(minimum inhibitory concentration)
# [16] = target: Beta-lactamase TEM (Escherichia coli) (UniProt P62593)
# Description: Antibacterial activity against Escherichia coli E96P organism, activity expressed as MIC(minimum inhibitory concentration)
# [17] = target: Beta-lactamase TEM (Escherichia coli) (UniProt P62593); experiment: Minimum inhibitory concentration of 4 ug/ml compound in combination with amoxycillin against Escherichia coli E96P organism; assay type: functional
# [18] = target: Beta-lactamase (Enterobacter cloacae) (UniProt P05364); remark: listed apart in the source
# Description: Minimum inhibitory concentration of 4 ug/ml compound in combination with amoxycillin against Enterobacter cloacae N-1 organism
# Chain of Beta-lactamase (Staphylococcus aureus) (P00807 whole entry): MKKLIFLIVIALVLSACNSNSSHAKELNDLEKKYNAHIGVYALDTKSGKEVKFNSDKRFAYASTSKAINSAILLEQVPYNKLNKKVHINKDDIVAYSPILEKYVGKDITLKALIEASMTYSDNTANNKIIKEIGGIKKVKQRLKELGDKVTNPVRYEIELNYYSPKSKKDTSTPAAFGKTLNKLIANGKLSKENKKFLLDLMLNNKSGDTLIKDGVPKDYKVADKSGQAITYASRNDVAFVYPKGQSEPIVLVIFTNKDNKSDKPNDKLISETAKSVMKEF
# Chain of Beta-lactamase OXA-1 (Escherichia coli) (P13661 whole entry): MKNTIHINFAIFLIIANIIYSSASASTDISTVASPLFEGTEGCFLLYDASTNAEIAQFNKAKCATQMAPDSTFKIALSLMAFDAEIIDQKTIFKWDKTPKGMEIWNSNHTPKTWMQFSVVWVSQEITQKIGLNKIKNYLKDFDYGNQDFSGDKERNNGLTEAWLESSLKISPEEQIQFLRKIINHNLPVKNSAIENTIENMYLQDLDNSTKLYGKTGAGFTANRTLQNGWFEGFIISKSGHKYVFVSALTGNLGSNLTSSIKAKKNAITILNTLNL
# Chain of Beta-lactamase TEM (Escherichia coli) (P62593 whole entry): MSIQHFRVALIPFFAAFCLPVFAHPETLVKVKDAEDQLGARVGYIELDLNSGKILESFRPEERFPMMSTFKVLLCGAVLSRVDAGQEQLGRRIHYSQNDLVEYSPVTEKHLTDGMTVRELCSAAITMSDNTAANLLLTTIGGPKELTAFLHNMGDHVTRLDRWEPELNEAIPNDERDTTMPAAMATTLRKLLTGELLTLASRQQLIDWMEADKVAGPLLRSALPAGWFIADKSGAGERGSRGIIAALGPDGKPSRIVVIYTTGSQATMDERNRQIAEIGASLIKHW
# Chain of Beta-lactamase (Enterobacter cloacae) (P05364 21-381 limits assumed): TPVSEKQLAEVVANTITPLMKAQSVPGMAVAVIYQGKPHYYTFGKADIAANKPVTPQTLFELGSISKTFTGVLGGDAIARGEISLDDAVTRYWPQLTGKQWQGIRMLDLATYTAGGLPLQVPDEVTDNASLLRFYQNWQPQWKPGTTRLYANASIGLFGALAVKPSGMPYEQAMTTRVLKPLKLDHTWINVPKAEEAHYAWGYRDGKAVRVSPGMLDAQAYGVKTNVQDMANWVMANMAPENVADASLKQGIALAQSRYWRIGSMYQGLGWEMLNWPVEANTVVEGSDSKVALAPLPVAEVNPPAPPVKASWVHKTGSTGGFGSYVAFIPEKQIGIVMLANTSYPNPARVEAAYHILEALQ
smiles,measurement,setting,value
CC1(C)S[C@@H]2[C@H](NC(=O)C(N)c3ccc(O)cc3)C(=O)N2[C@H]1C(=O)O.O=C(O)CNP(=O)(O)CNC(=O)OCc1ccccc1 (stereo partly specified),MIC,[1],32 µg/mL
CC1(C)S[C@@H]2[C@H](NC(=O)C(N)c3ccc(O)cc3)C(=O)N2[C@H]1C(=O)O.O=C([O-])CCNP(=O)([O-])CNC(=O)OCc1ccccc1.[Li+].[Li+] (stereo partly specified),MIC,[2],32 µg/mL
O=C(O)CNP(=O)(O)CNC(=O)OCc1ccccc1,ID50,[3],2.29 µg/mL
same,ID50,[4],30 µM
same,ID50,[5],> 100 µM
same,ID50,[6],> 100 µg/mL
same,ID50,[7],> 100 µM
same,ID50,[8],> 100 µM
same,ID50,[9],> 100 µg/mL
CC1(C)S[C@@H]2[C@H](NC(=O)C(N)c3ccc(O)cc3)C(=O)N2[C@H]1C(=O)O.O=C(O)CC(NP(=O)(O)CNC(=O)OCc1ccccc1)c1ccccc1 (stereo unspecified),MIC,[10],16 µg/mL
CC1(C)S[C@@H]2[C@H](NC(=O)C(N)c3ccc(O)cc3)C(=O)N2[C@H]1C(=O)O.O=C([O-])CC(NP(=O)([O-])CNC(=O)OCc1ccccc1)c1ccccc1.[Li+].[Li+] (stereo unspecified),MIC,[2],8 µg/mL
COP(=O)(CNC(=O)OCc1ccccc1)N1CCC[C@H]1C(=O)O (stereo partly specified),ID50,[3],54 µM
same,ID50,[6],> 100 µM
same,ID50,[9],> 100 µM
CC1(C)S[C@@H]2[C@H](NC(=O)C(N)c3ccc(O)cc3)C(=O)N2[C@H]1C(=O)O.O=C(NCP(=O)([O-])NC(C(=O)[O-])c1ccccc1)OCc1ccccc1.[Li+].[Li+] (stereo unspecified),MIC,[2],64 µg/mL
CC1(C)S[C@@H]2[C@H](NC(=O)C(N)c3ccc(O)cc3)C(=O)N2[C@H]1C(=O)O.O=C(NCP(=O)([O-])N[C@@H](Cc1ccccc1)C(=O)[O-])OCc1ccccc1.[Li+].[Li+],MIC,[2],64 µg/mL
CC1(C)S[C@@H]2[C@H](NC(=O)[C@H](N)c3ccc(O)cc3)C(=O)N2[C@H]1C(=O)O [AMOXICILLIN],MIC,[11],256 µg/mL
O=C(NCP(=O)(O)N[C@@H](Cc1ccccc1)C(=O)O)OCc1ccccc1,ID50,[3],0.75 µM
same,ID50,[4],60 µM
same,ID50,[5],> 100 µM
same,ID50,[6],> 50 µM
same,ID50,[7],> 100 µM
same,ID50,[8],15 µM
same,ID50,[9],> 33 µM
CC1(C)S[C@@H]2[C@H](NC(=O)C(N)c3ccc(O)cc3)C(=O)N2[C@H]1C(=O)O.O=C(O)CCNP(=O)(O)CNC(=O)OCc1ccccc1 (stereo partly specified),MIC,[10],44 µg/mL
O=C(O)CC(NP(=O)(O)CNC(=O)OCc1ccccc1)c1ccccc1 (stereo unspecified),ID50,[3],0.87 µM
same,ID50,[4],46 µM
same,ID50,[5],63 µM
same,ID50,[6],> 50 µM
same,ID50,[7],> 100 µM
same,ID50,[8],83 µM
same,ID50,[9],> 35 µM
CC1(C)S[C@@H]2[C@H](NC(=O)[C@H](N)c3ccc(O)cc3)C(=O)N2[C@H]1C(=O)O.O=C(O)[C@H]1/C(=C/CO)O[C@@H]2CC(=O)N21 [listing 1 of 2 here],MIC,[12],0.12 µg/mL
CC1(C)S[C@@H]2[C@H](NC(=O)C(N)c3ccc(O)cc3)C(=O)N2[C@H]1C(=O)O.O=C(NCP(=O)(O)NC(C(=O)O)c1ccccc1)OCc1ccccc1 (stereo unspecified),MIC,[10],32 µg/mL
CC1(C)S[C@@H]2[C@H](NC(=O)C(N)c3ccc(O)cc3)C(=O)N2[C@H]1C(=O)O.O=C(NCP(=O)(O)N[C@H](Cc1ccccc1)C(=O)O)OCc1ccccc1,MIC,[10],128 µg/mL
O=C(NCP(=O)(O)N[C@@H](C(=O)O)c1ccccc1)OCc1ccccc1,ID50,[3],4.16 µM
same,ID50,[4],> 100 µM
same,ID50,[5],> 100 µM
same,ID50,[6],> 100 µM
same,ID50,[7],> 100 µM
same,ID50,[8],> 100 µM
same,ID50,[9],> 100 µM
CC1(C)S[C@@H]2[C@H](NC(=O)C(N)c3ccc(O)cc3)C(=O)N2[C@H]1C(=O)O.O=C([O-])CNP(=O)([O-])CNC(=O)OCc1ccccc1.[Li+].[Li+] (stereo partly specified),MIC,[2],64 µg/mL
CC1(C)S[C@@H]2[C@H](NC(=O)[C@H](N)c3ccc(O)cc3)C(=O)N2[C@H]1C(=O)O,MIC,[13],256 µg/mL
CC1(C)S[C@@H]2[C@H](NC(=O)C(N)c3ccc(O)cc3)C(=O)N2[C@H]1C(=O)O.O=C(NCP(=O)(O)N[C@@H](Cc1ccccc1)C(=O)O)OCc1ccccc1,MIC,[10],128 µg/mL
O=C(O)CCNP(=O)(O)CNC(=O)OCc1ccccc1,ID50,[3],0.87 µM
same,ID50,[4],14 µM
same,ID50,[5],33 µM
same,ID50,[6],> 50 µM
same,ID50,[7],> 100 µM
same,ID50,[8],> 100 µM
same,ID50,[9],> 25 µM
COP(=O)(CNC(=O)OCc1ccccc1)N1CCC[C@@H]1C(=O)O (stereo partly specified),ID50,[3],67 µM
same,ID50,[6],> 100 µM
same,ID50,[9],> 100 µM
O=C(O)CNCP(=O)(O)CNC(=O)OCc1ccccc1,ID50,[3],> 100 µM
same,ID50,[6],> 100 µM
same,ID50,[9],> 100 µM
CC1(C)S[C@@H]2[C@H](NC(=O)C(N)c3ccc(O)cc3)C(=O)N2[C@H]1C(=O)O.O=C(NCP(=O)([O-])N[C@H](Cc1ccccc1)C(=O)[O-])OCc1ccccc1.[Li+].[Li+],MIC,[2],64 µg/mL
O=C(NCP(=O)(O)N[C@H](Cc1ccccc1)C(=O)O)OCc1ccccc1,ID50,[3],3.8 µM
same,ID50,[4],> 100 µM
same,ID50,[5],> 100 µM
same,ID50,[6],> 100 µM
same,ID50,[7],> 100 µM
same,ID50,[8],> 100 µM
same,ID50,[9],> 100 µM
COP(=O)(CNC(=O)OCc1ccccc1)N1CSC(C)(C)[C@@H]1C(=O)O (stereo partly specified),ID50,[3],> 100 µM
same,ID50,[6],> 100 µM
same,ID50,[9],> 100 µM
O=C(O)[C@H]1/C(=C/CO)O[C@@H]2CC(=O)N21 [CLAVULANIC ACID],ID50,[3],310 µM
same,ID50,[4],3.4 µM
same,ID50,[5],0.013 µM
same,ID50,[6],0.315 µM
same,ID50,[7],0.51 µM
same,ID50,[8],0.235 µM
same,ID50,[9],0.38 µM
same,MIC,[14],32 µg/mL
same,MIC,[15],32 µg/mL
same,MIC,[16],32 µg/mL
CC1(C)S[C@@H]2[C@H](NC(=O)[C@H](N)c3ccc(O)cc3)C(=O)N2[C@H]1C(=O)O.O=C(O)[C@H]1/C(=C/CO)O[C@@H]2CC(=O)N21 [listing 2 of 2 here],MIC,[17],16 µg/mL
same,MIC,[18],256 µg/mL

# Reference: ChEMBL document CHEMBL1127929, “The synthesis and serine -lactamase inhibitory activity of some phosphonamidate analogues of dipeptides” (1994)
